Measured values: US20240199555A1, “APPLICATIONS OF BIASED LIGANDS OF THE SEROTONIN 5-HT7 RECEPTOR FOR THE TREATMENT OF PAIN, MULTIPLE SCLEROSIS AND THE CONTROL OF THERMOREGULATION” (Centre National de la Recherche Scientifique, priority 2021, published 2024)

Tests used:
HEK-293 mock cells = assay: Control in mock-transfected HEK-293 cells (cAMP, ERK phosphorylation); format: cell-based, human
Method: ERK phosphorylation was monitored by western blotting after treatment of cells with 10 μM of ligands at different times ranging from 2 to 60 minutes. […] The kinetics of ERK phosphorylation elicited by 5-CT, Serodolin and MOA-51 were very similar: activation was fast and transient, and reached a pick between 2 and 7 minutes after drug exposure. However, ERK phosphorylation-induced by Serodolin and MOA-51 was more protracted compared to 5-CT, the reference agonist.

mice = assay: Acetic acid-induced writhing test; format: in vivo
Method: (§1) FIG. 9: Analgesic effect of Serodolin in the acetic acid-induced writhing test. In this test, nociception was induced by an intraperitoneally injection (ip) of 0.1 ml/10 g acid acetic solution (10 ml/kg) in peripheral origin. Serodolin at increasing dosage was administrated by oral (po), intravenous (iv) or subcutaneous (sc) route before acid acetic injection (upper panel). Positive control animals were pretreated morphine (3 mg/kg, sc) 10 minutes before acetic acid. Five minutes after i.p. injection of acetic acid the number of writhing was recorded for 10 minutes. Data mean±SEM of values obtained from a representative experiment (n=10 animals/group). ****p<0.0001 ***p<0.001 **p<0.01 *p<0.05 as compared with the control group (Vh).
as §1, with “16:” for “9:”, “MOA51” for “Serodolin”, “i.p.injection” for “i.p. injection”, “animals/group).” for “animals/group). ****p<0.0001 ***p<0.001”, “**p<0.01” for “**p<0.01 *p<0.05”
Writhing tests: Mice (25-35 g). Groups of mice (n=10) received by oral, subcutaneous or intravenous route Serodolin at different doses (0.1-10 mg/kg) one hour before intraperitoneally injection of 1% acetic acid in a volume of 10 ml/kg. Control group received vehicle (10 ml/kg, solution of 20% DMSO and 5% tween 80). The test was carried out 5 minutes later after acid acetic injection. The characteristic writhing responses have been observed individually and counted for 10 minutes.
Analgesic activity was first evaluated using the acetic acid abdominal constriction test (writhing test), a chemical model of visceral pain. We evaluated the dose-response effect of Serodolin following single oral, intravenous and subcutaneous administration of the compound one hour before injection of acetic acid.
Analgesic activity was evaluated using the acetic acid abdominal constriction test (writhing test), a chemical model of visceral pain. We evaluated the dose-response effect of MOA51 following single oral, intravenous and subcutaneous administration of the compound one hour before injection of acetic acid. MOA51 administered by the oral route induced statistically significant dose-dependent decreases in the number of writhings at and above the dose of 1 mg/kg. By the intravenous route, MOA51 induced dose-dependent decreases in the number of writhings at and above the dose of 0.1 mg/kg.

mouse = assay: Effect on body temperature; format: in vivo
Description: FIG. 13: Evaluation of the effect of Serodolin on body temperature.
FIG. 17: Evaluation of the effect of MOA51 on body temperature. Results expressed in ° C.
The time course of the effect of Serodolin on the body temperature has been evaluated in the mouse following intravenous administration.

Sprague-Dawley male rats = assay: Formalin induced inflammatory pain model; format: in vivo; details: single s.c., Serodolin 10 mg/kg, MOA51 1 mg/kg, morphine
Method: FIG. 18: Effect of a single administration of Serodolin (AIC01) or MOA51 in the formalin test in rats. Effect of a single subcutaneous administration of Serodolin (AIC01) or MOA51 in the formalin test in rats. In this test, Sprague-Dawley male rats received unilateral injection of a 2.5% formalin solution (50 μl) into the plantar aspect of the hindpaw on testing day (i.e. D0). Control group received Vehicle (20% DMSO/5% Tween 80/NaCl). Serodolin was subcutaneously (sc) administrated at 10 mg/kg and MOA51 at 1 mg/kg. Positive control animals were treated with morphine (3 mg/kg, sc). Paw licking time was measured. Results are expressed as mean±s.e.m. Percentage are expressed as decreased as compared to the vehicle-treated group and represented as figure (B). ***: p<0.001 as compared to the vehicle-treated group, Bonferroni's test after significant Two-way Repeated Measures ANOVA. NS: Non-significant.
Sprague-Dawley male rats (n=10 rats per group) received unilateral injection of a 2.5% formalin solution (50 μl) into the plantar aspect of the hindpaw on testing day (i.e. D0). Experience was separated into 4 groups of animals. Formalin animals+vehicle-treated group; […]—Formalin animals+Sponsor's Serodolin (10 mg/kg), s.c.—Formalin animals+Sponsor's MOA51 (1 mg/kg), s.c.—Formalin animals+internal validator-treated group (Morphine at 4 mg/Kg, s.c.). Single subcutaneous administration of the Vehicle and Sponsor's Compound 30 min (or other timing depending on Sponsor's design) before formalin injection on testing day (i.e. D0)/Subcutaneous administration of Morphine 30 min before formalin injection on testing day (i.e. D0). Hindpaw licking time recorded in consecutive 5 minutes periods from 0 to 5 minutes (early phase) and 17 to 27 minutes (late phase) after formalin injection.
We evaluated the effect of Serodolin as well as MOA51 in rats in the formalin test, an acute and tonic pain model based on the use of a chemical stimulus. Subcutaneous injection of formalin into the right hindpaw produces a biphasic painful response of increasing and decreasing intensity for about 30 minutes after the injection. […] Although not significant, Serodolin, MOA51 and morphine have an inhibitory effect (−40%, −35% and −57% respectively) during the early phase.

C57BL/6 mice = assay: Spared Nerve Injury (SNI) neuropathic pain model, Von Frey; details: s.c.
Method: Pregabalin, vehicle or compounds solutions are subcutaneously administrated for 8 consecutive days. • (A) Mechanical response threshold after the first administration (D+10). […] Positive control animals were treated with Pregabalin (5 mg/kg, sc). Statistical differences are indicated compared to vehicle group (Two-way RM ANOVA followed by Bonferroni post-hoc test: ***p<0.001, ** p<0.01, * p<0.05). […] Positive control animals were treated with Pregabalin (5 mg/kg, sc). Statistical differences are indicated compared to vehicle group (Two-way RM ANOVA followed by Bonferroni post-hoc test: ***p<0.001, ** p<0.01, * p<0.05). […] (Two-way RM ANOVA followed by Bonferroni post-hoc test: ***p<0.001, ** p<0.01, * p<0.05)
MOA51 and Serodolin (AIC01) compounds were diluted in NDT solution (NaCl 0.9%—DMSO 20%—Tween80 5%). […] AIC01 was resuspended at 0.5 mg/mL and administrated at a ratio of 100 μl per 10 g (dose of 5 mg/kg).
Experiment starts with 8 weeks old male C57B16J mice (from Charles River). Study was performed on 40 mice (2 mice were excluded during the study due to health guidelines) divided in 4 randomized groups. • Group A: s.c. injection at 5 mg/kg of pregabalin. • Group B: s.c. injection at 0.5 mg/kg of MOA51. • Group C: s.c. injection at 5 mg/kg of Serodolin (AIC01). • Group D: s.c. injection of NDT solution (referred as Vehicle hereafter).
Compounds solutions, pregabalin and vehicle were subcutaneously administrated (100 μl/10 g) for 9 consecutive days, starting 10 days after surgery. Ligature and transection of the common peroneal and tibial distal branches of the sciatic nerve was made leaving the sural branch intact. 7 days post-surgery, a decrease of threshold response to Von Frey filaments of ipsilateral hind-paw was observed corresponding to neuropathic pain apparition (mechanical allodynia). Mechanical threshold response of mice were measured with calibrated Von Frey filaments using the up/down method. Experimenter was blind to mice treatment. Measures are performed as follow: one baseline measure before surgery, one measure at D+10, D+12, D+14, D+16 and D+18 before drug's administration, and 1 h, 2 h post-drug administration. A supplementary measure 4 h post-drug administration was performed at D+10 and D+18.
Two-way RM ANOVA (followed by Bonferroni post-hoc test) was used to analysed time course response at D+10 and D+18. Area under the curve was determined with the 1 h and 2 h post-drug administration measures to investigated tolerance of repeated administration of compounds

O=C(c1ccc(F)cc1)C1CCN(Cn2c(=O)[nH]c3ccccc32)CC1 [MOA51]
ERK phosphorylation in HEK-293 mock cells (HEK-293 mock cells): neither Serodolin, nor MOA-51 were able to induce ERK phosphorylation | writhings at the top dose, intravenous route (mice; 10 mg/kg, intravenous): no further acetic acid-induced writhings were observed | dose giving decrease in number of writhings, intravenous route (mice; intravenous, one hour before acetic acid): ≥ 0.1 mg/kg | dose giving significant decrease in number of writhings, oral route (mice; oral, one hour before acetic acid): ≥ 1 mg/kg | dose giving significant decrease in number of writhings, subcutaneous route (mice; s.c., one hour before acetic acid): ≥ 1 mg/kg | writhings at the top dose, subcutaneous route (mice; top dose, subcutaneous): absence of acetic acid-induced writhings | decrease in body temperature, Emax (mouse; 0.1 mg/kg, at 30 min, not statistically significant): −2.3 °C | decrease in body temperature, Emax (mouse; 0.3 mg/kg, at 30 min): −5.4 °C | decrease in body temperature, Emax (mouse; 1 mg/kg, at 180 min): −7.2 °C | inhibitory effect on paw licking, early phase (Sprague-Dawley male rats; 0 to 5 minutes, not significant): −35% | inhibition of licking, late phase (Sprague-Dawley male rats; 17 to 27 minutes): −78% | tolerance after repetitive administration (AUC) (C57BL/6 mice; 9 consecutive days): didn't present any tolerance effect after repetitive administration | mechanical response threshold vs vehicle (C57BL/6 mice; first (D+10) and last (D+18) administration, 1 h and 2 h): significant increase in the mechanical threshold response
